The text below walks through data of patent publication US20030026797A1, “Antifungal compositions” (priority 1996, published 2003).

Test [1] concerns conidia of Fusarium oxysporum. In words: Survival of hot-water treated conidia of Fusarium oxysporum (plating on PDA-V agar). The class given is cell-based. Conditions: 2 hrs at 43.5° C., 25,000 conidia per ml, no enzymes. As to the method: Viability of conidia of Fusarium oxysporum was measured at the start and at the end of the hot-water treatment. (2 hrs at 43.5° C.).
Five samples of 1 ml were mixed each with 20 ml of PDA containing 50 microgram/ml vendarcin (PDA-V) and poured into petri dishes of 14 cm diameter. Colonies were counted after 2 and 5 days at 25° C.
In the presence of natamycin and fungal cell wall degrading enzymes, 2 samples of 25 ml were taken from the bath at the beginning and the end of the treatment. These samples were centrifuged at 3,000*g for 15 min. The pellet containing the conidia was washed several times with sterile water to remove the antifungal agents, followed by centrifugation and dilution to allow for plating on PDA-V as described above. […]
Chitinase and β-1,3-glucanase respectively were added to the hot-water bath to a final activity of 36,000 and 10,000 units per liter. Units are as defined in Example 1.

The subject of another test is Rhizoctonia. In words: Soil treatment against Rhizoctonia infection of flower bulbs (visual inspection after 4 weeks). Conditions: 18° C. The format is in vivo. On the procedure:
Bulbs were planted in pots at standard soil at a depth of 20 cm. Oat borne sclerotia of Rhizoctonia were mixed through the soil to infect the bulbs. Temperature was maintained at 18° C. during the experiment. Experiments were replicated 5 fold. Natamycin and fungal cell wall degrading enzymes were mixed as powders through the soil prior to infection with Rhizoctonia. Natamycin was tested at final concentrations of 1000, 500 and 100 mg/kg. Chitinase and β-1,3-glucanase was mixed through the soil to a final activity of 3600 and 1000 units per kg of soil. After 4 weeks bulbs were monitored for fungal infection by means of visual inspection.

Molecules are shown by their SMILES.

With `C[C@@H]1C/C=C/C=C/C=C/C=C/[C@H](O[C@@H]2O[C@H](C)[C@@H](O)[C@H](N)[C@@H]2O)C[C@@H]2O[C@](O)(C[C@@H](O)C[C@H]3O[C@@H]3/C=C/C(=O)O1)C[C@H](O)[C@H]2C(=O)O` [Natamycin, natamycin], the “Surviving conidia per ml” value is given as 70 per ml in test [1] (natamycin 100 mg/L in hot-water bath), 50 per ml in test [1] (natamycin 200 mg/L in hot-water bath) and below 1 per ml in test [1] (natamycin 300 mg/L in hot-water bath). For the same compound, the “Percentage of bulbs showing fungal infection” value in the test on Rhizoctonia (natamycin 100 mg/kg soil) turned out to be 50%; in the test on Rhizoctonia (natamycin 500 mg/kg soil) it was 42%; in the test with Rhizoctonia (natamycin 1000 mg/kg soil), 19%.
